Test results published in patent US20250230193A1, “CYCLIC COMPOUND HAVING SELECTIVE KRAS INHIBITORY EFFECT ON HRAS AND NRAS” (CHUGAI SEIYAKU KABUSHIKI KAISHA, priority 2022, published 2025).

How the values were obtained:
[1] = system: human lung cancer strain NCI-H441; assay: cells; conditions: NCI-H441, 96 h, read-out: NCI-H441 IC50 (nM)
[2] = molecular target: GDP-bound HRAS wild-type protein (Homo sapiens, UniProt P01112); assay: Binding to HRAS by surface plasmon resonance (SPR), Single Cycle Kinetics; conditions: SPR; KD ratio class
[3] = molecular target: GDP-bound NRAS wild-type protein (Homo sapiens, UniProt P01111); assay: Binding to NRAS by surface plasmon resonance (SPR), Single Cycle Kinetics; conditions: SPR; KD ratio class
Chain of GDP-bound NRAS wild-type protein (P01111 whole entry): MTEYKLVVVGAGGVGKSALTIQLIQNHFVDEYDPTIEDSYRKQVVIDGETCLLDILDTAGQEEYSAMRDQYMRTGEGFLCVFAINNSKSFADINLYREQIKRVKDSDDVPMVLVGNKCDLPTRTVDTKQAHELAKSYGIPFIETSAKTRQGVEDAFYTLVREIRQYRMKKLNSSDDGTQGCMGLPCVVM

Chain of GDP-bound HRAS wild-type protein (P01112 whole entry): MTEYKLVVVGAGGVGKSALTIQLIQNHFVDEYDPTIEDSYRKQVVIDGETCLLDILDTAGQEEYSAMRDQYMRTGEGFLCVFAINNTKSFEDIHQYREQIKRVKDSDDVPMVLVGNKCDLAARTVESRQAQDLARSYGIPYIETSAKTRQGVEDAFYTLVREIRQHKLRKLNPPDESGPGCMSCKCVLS

Row | Compound | IC50 [1] [nM] | HRAS/KRAS (ratio of KD value for GDP-bound HRAS wild-type protein to KD value for KRAS) [2] | NRAS/KRAS (ratio of KD value for GDP-bound NRAS wild-type protein to KD value for KRAS) [3]
1 | CCO[C@@H]1C[C@H]2C(=O)NC3(CCC3)C(=O)N(C)[C@@H](C(CC)CC)C(=O)N(C)[C@H](C(=O)N(C)C)CC(=O)N(C)[C@@H](COC)C(=O)N[C@@H]([C@@H](C)CC)C(=O)N(C)CC(=O)N(C)[C@H]3C/C=C\CCN(C3=O)[C@@H](Cc3ccc(C(F)(F)F)cc3)C(=O)N(C)CC(=O)N[C@@H](CCc3cc(F)c(C(F)(F)F)c(F)c3)C(=O)N2C1 [PP1205] | 25.4 | A (a compound having 10 or more and less than 20 is denoted as A) | AA (a compound having 20 or more is denoted as AA)
2 | CCO[C@@H]1C[C@H]2C(=O)NC(C)(C)C(=O)N(C)[C@@H](C3CCCC3)C(=O)N(C)[C@H](C(=O)N(C)C)CC(=O)N(C)[C@@H](CC)C(=O)N[C@@H]([C@@H](C)CC)C(=O)N(C)CC(=O)N(C)[C@H]3C/C=C\CCN(C3=O)[C@@H](Cc3ccc(C(F)(F)F)cc3)C(=O)N(C)CC(=O)N[C@@H](CCc3cc(F)c(C(F)(F)F)c(F)c3)C(=O)N2C1 [PP1280] | 34.4 | A (a compound having 10 or more and less than 20 is denoted as A) | A (a compound having 10 or more and less than 20 is denoted as A)
3 | CCCCCC[C@H]1C(=O)N[C@@H]([C@@H](C)CC)C(=O)N(C)CC(=O)N(C)[C@H]2C/C=C\CCN(C2=O)[C@@H](Cc2ccc(C(F)(F)F)cc2)C(=O)N(C)CC(=O)N[C@@H](CCc2ccc(Cl)c(Cl)c2)C(=O)N2C[C@H](OCC)C[C@H]2C(=O)NC2(CCC2)C(=O)N(C)[C@@H](C(CC)CC)C(=O)N(C)[C@H](C(=O)N(C)C)CC(=O)N1C [PP1218] | 67.9 | A (a compound having 10 or more and less than 20 is denoted as A) | AA (a compound having 20 or more is denoted as AA)
4 | CCO[C@@H]1C[C@H]2C(=O)NC3(CCC3)C(=O)N(C)[C@@H](C3CCCC3)C(=O)N(C)[C@H](C(=O)N(C)C)CC(=O)N(C)[C@@H](CC(C)(C)C)C(=O)N[C@@H]([C@@H](C)CC)C(=O)N(C)CC(=O)N(C)[C@H]3C/C=C\CCN(C3=O)[C@@H](CC3CCC(F)(F)CC3)C(=O)N(C)CC(=O)N[C@@H](CCc3cc(F)c(C(F)(F)F)c(F)c3)C(=O)N2C1 [PP1460] | 32.9 | A (a compound having 10 or more and less than 20 is denoted as A) | A (a compound having 10 or more and less than 20 is denoted as A)
5 | CCO[C@@H]1C[C@H]2C(=O)NC3(CCC3)C(=O)N(C)[C@@H](C3CCCC3)C(=O)N(C)[C@H](C(=O)N(C)C)CC(=O)N(C)[C@@H](CC3CCCC3)C(=O)N[C@@H]([C@@H](C)CC)C(=O)N(C)CC(=O)N(C)[C@H]3C/C=C\CCN(C3=O)[C@@H](Cc3ccc(C)cc3)C(=O)N(C)CC(=O)N[C@@H](CCc3ccc(Cl)c(Cl)c3)C(=O)N2C1 [PP1487] | 46.6 | A (a compound having 10 or more and less than 20 is denoted as A) | A (a compound having 10 or more and less than 20 is denoted as A)
6 | CCO[C@@H]1C[C@H]2C(=O)NC3(CCC3)C(=O)N(C)[C@@H](C3CCCC3)C(=O)N(C)[C@H](C(=O)N3CCOCC3)CC(=O)N(C)[C@@H](CC3CCCC3)C(=O)N[C@@H]([C@@H](C)CC)C(=O)N(C)CC(=O)N(C)[C@H]3C/C=C\CCN(C3=O)[C@@H](Cc3ccc(C)cc3)C(=O)N(C)CC(=O)N[C@@H](CCc3cc(F)c(C(F)(F)F)c(F)c3)C(=O)N2C1 [PP1394] | 25.1 | A (a compound having 10 or more and less than 20 is denoted as A) | AA (a compound having 20 or more is denoted as AA)
7 | CCO[C@@H]1C[C@H]2C(=O)NC3(CCCC3)C(=O)N(C)[C@@H](C(CC)CC)C(=O)N(C)[C@H](C(=O)N3CCCC3)CC(=O)N(C)[C@@H](C)C(=O)N[C@@H]([C@@H](C)CC)C(=O)N(C)CC(=O)N(C)[C@H]3C/C=C\CCN(C3=O)[C@@H](CC3CCCCC3)C(=O)N(C)CC(=O)N[C@@H](CCc3cc(F)c(C(F)(F)F)c(F)c3)C(=O)N2C1 [PP1435] | 178 | A (a compound having 10 or more and less than 20 is denoted as A) | A (a compound having 10 or more and less than 20 is denoted as A)
8 | CC[C@H](C)[C@@H]1NC(=O)[C@H](CC)N(C)C(=O)C[C@@H](C(=O)N2CCOCC2)N(C)C(=O)[C@H](C2CCCC2)N(C)C(=O)C2(CCCC2)NC(=O)[C@@H]2CCCN2C(=O)[C@H](CCc2ccc(C(F)(F)F)c(Cl)c2)NC(=O)CN(C)C(=O)[C@H](Cc2ccc(C(F)(F)F)cc2)N2C[C@H](C)CC[C@@H](C2=O)N(C)C(=O)CN(C)C1=O [PP1337] | 29.8 | B (a compound having 3 or more and less than 10 is denoted as B) | B (a compound having 3 or more and less than 10 is denoted as B)

Compounds with a lower IC50 [1], results first:

Row | IC50 [1] [nM] | Compound | HRAS/KRAS (ratio of KD value for GDP-bound HRAS wild-type protein to KD value for KRAS) [2] | NRAS/KRAS (ratio of KD value for GDP-bound NRAS wild-type protein to KD value for KRAS) [3]
9 | 15 | CCO[C@@H]1C[C@H]2C(=O)NC3(CCC3)C(=O)N(C)[C@@H](C3CCCC3)C(=O)N(C)[C@H](C(=O)N(C)C)CC(=O)N(C)[C@@H](CC3CCCC3)C(=O)N[C@@H]([C@@H](C)CC)C(=O)N(C)CC(=O)N(C)[C@H]3C/C=C\CCN(C3=O)[C@@H](Cc3ccc(C)cc3)C(=O)N(C)CC(=O)N[C@@H](CCc3cc(F)c(Cl)c(F)c3)C(=O)N2C1 [PP1486] | A (a compound having 10 or more and less than 20 is denoted as A) | A (a compound having 10 or more and less than 20 is denoted as A)
10 | 3.3 | CCO[C@@H]1C[C@H]2C(=O)NC3(CCCC3)C(=O)N(C)[C@@H](C3CCCC3)C(=O)N(C)[C@H](C(=O)N(C)C)CC(=O)N(C)[C@@H](CC3CC3)C(=O)N[C@@H]([C@@H](C)CC)C(=O)N(C)CC(=O)N(C)[C@H]3C[C@@H](C)[C@@H](C)CN(C3=O)[C@@H](Cc3ccc(C(F)(F)F)cc3)C(=O)N(C)CC(=O)N[C@@H](CCc3cc(F)c(C(F)(F)F)c(F)c3)C(=O)N2C1 [PP1356] | B (a compound having 3 or more and less than 10 is denoted as B) | B (a compound having 3 or more and less than 10 is denoted as B)
11 | 18.9 | CCO[C@@H]1C[C@H]2C(=O)NC3(CCC3)C(=O)N(C)[C@@H](C3CCCC3)C(=O)N(C)[C@H](C(=O)N(C)C)CC(=O)N(C)[C@@H](CC(C)C)C(=O)N[C@@H]([C@@H](C)CC)C(=O)N(C)CC(=O)N(C)[C@H]3C/C=C\CCN(C3=O)[C@@H](Cc3ccc(C(F)(F)F)cc3)C(=O)N(C)CC(=O)N[C@@H](CCc3cc(F)c(Cl)c(F)c3)C(=O)N2C1 [PP1263] | A (a compound having 10 or more and less than 20 is denoted as A) | A (a compound having 10 or more and less than 20 is denoted as A)
12 | 5.8 | CCO[C@@H]1C[C@H]2C(=O)NC3(CCCC3)C(=O)N(C)[C@@H](C3CCCC3)C(=O)N(C)[C@H](C(=O)N3CCOCC3)CC(=O)N(C)[C@@H](CC)C(=O)N[C@@H]([C@@H](C)CC)C(=O)N(C)CC(=O)N(C)[C@H]3CC[C@@H](C)CN(C3=O)[C@@H](Cc3ccc(C(F)(F)F)cc3)C(=O)N(C)CC(=O)N[C@@H](CCc3ccc(C(F)(F)F)c(Cl)c3)C(=O)N2C1 [PP1377] | B (a compound having 3 or more and less than 10 is denoted as B) | B (a compound having 3 or more and less than 10 is denoted as B)
13 | 20.8 | CCO[C@@H]1C[C@H]2C(=O)NC3(CCC3)C(=O)N(C)[C@@H](C(CC)CC)C(=O)N(C)[C@H](C(=O)N(C)C)CC(=O)N(C)[C@@H](CC3CC3)C(=O)N[C@@H]([C@@H](C)CC)C(=O)N(C)CC(=O)N(C)[C@H]3C/C=C\CCN(C3=O)[C@@H](Cc3ccc(C(F)(F)F)cc3)C(=O)N(C)CC(=O)N[C@@H](CCc3cc(F)c(C(F)(F)F)c(F)c3)C(=O)N2C1 [PP1203] | A (a compound having 10 or more and less than 20 is denoted as A) | A (a compound having 10 or more and less than 20 is denoted as A)
14 | 19.3 | CC[C@H](C)[C@@H]1NC(=O)[C@H](CC2CC2)N(C)C(=O)C[C@@H](C(=O)N2CCOCC2)N(C)C(=O)[C@H](C2CCCC2)N(C)C(=O)C2(CCCC2)NC(=O)[C@@H]2CCCN2C(=O)[C@H](CCc2ccc(C(F)(F)F)c(Cl)c2)NC(=O)CN(C)C(=O)[C@H](Cc2ccc(C(F)(F)F)cc2)N2C[C@H](C)CC[C@@H](C2=O)N(C)C(=O)CN(C)C1=O [PP1343] | B (a compound having 3 or more and less than 10 is denoted as B) | A (a compound having 10 or more and less than 20 is denoted as A)
15 | 11.2 | CC[C@H](C)[C@@H]1NC(=O)[C@H](CC)N(C)C(=O)C[C@@H](C(=O)N2CCOCC2)N(C)C(=O)[C@H](C2CCCC2)N(C)C(=O)C2(CCCC2)NC(=O)[C@@H]2CCCN2C(=O)[C@H](CCc2cc(F)c(C(F)(F)F)c(F)c2)NC(=O)CN(C)C(=O)[C@H](Cc2ccc(C(F)(F)F)cc2)N2C[C@H](C)CC[C@@H](C2=O)N(C)C(=O)CN(C)C1=O [PP1383] | B (a compound having 3 or more and less than 10 is denoted as B) | B (a compound having 3 or more and less than 10 is denoted as B)
